Results as given in ChEMBL document CHEMBL3885881, “DrugMatrix”.

Species on record: Rattus norvegicus
Assay: DrugMatrix - Regimen: Daily Repeat
Assay type: toxicity, organism-based, Sprague-Dawley
Design: regimen Daily Repeat, gender Male, age 6-8 weeks
Details: in vivo, po, route oral GAVAGE, […]; for ABSOLUTE BASOPHIL / ABSOLUTE EOSINOPHIL / ABSOLUTE LYMPHOCYTE / ABSOLUTE MONOCYTE / ABSOLUTE SEGMENTED NEUTROPHIL / BASOPHIL / EOSINOPHIL / ERYTHROCYTE COUNT / HEMATOCRIT / HEMOGLOBIN / LEUKOCYTE COUNT / LYMPHOCYTE / MEAN CORPUSCULAR HEMOGLOBIN / MEAN CORPUSCULAR HEMOGLOBIN CONCENTRATION / MEAN CORPUSCULAR VOLUME / MONOCYTE / NEUTROPHIL / NUCLEATED RED BLOOD CELLS / PLATELET COUNT: tissue Blood; for ALANINE AMINOTRANSFERASE / ALBUMIN / ALKALINE PHOSPHATASE / ASPARTATE AMINOTRANSFERASE / BLOOD UREA NITROGEN / CARBON DIOXIDE / CHLORIDE / CHOLESTEROL / CREATINE PHOSPHOKINASE / CREATININE / GLUCOSE / LACTATE DEHYDROGENASE / LIPASE / PHOSPHORUS / POTASSIUM / SODIUM / TOTAL BILIRUBIN / TOTAL PROTEIN / URIC ACID: tissue Plasma
[1] = 0 mg/kg, 72 h, dose level Control, time 3 day
[2] = 0 mg/kg, 120 h, dose level Control, time 5 day
[3] = 67 mg/kg, 72 h, dose level Low, time 3 day
[4] = 67 mg/kg, 120 h, dose level Low, time 5 day

## Cc1cccc(C)c1NC(=O)C(C)N (stereo unspecified) [TOCAINIDE]
[1]
  ABSOLUTE BASOPHIL: 0 CELLS/uL
  ABSOLUTE EOSINOPHIL: 41.83 CELLS/uL
  ABSOLUTE LYMPHOCYTE: 8545.5 CELLS/uL
  ABSOLUTE MONOCYTE: 240 CELLS/uL
  ABSOLUTE SEGMENTED NEUTROPHIL: 906 CELLS/uL
  BASOPHIL: 0%
  EOSINOPHIL: 0.33%
  ERYTHROCYTE COUNT: 5.6 x10E6/uL
  HEMATOCRIT: 35.4%
  HEMOGLOBIN: 13.42 G/DL
  LEUKOCYTE COUNT: 9.73 x10E3/uL
  LYMPHOCYTE: 87.83%
  MEAN CORPUSCULAR HEMOGLOBIN: 23.98 pg
  MEAN CORPUSCULAR HEMOGLOBIN CONCENTRATION: 37.92 G/DL
  MEAN CORPUSCULAR VOLUME: 63.3 fL
  MONOCYTE: 2.5%
  NEUTROPHIL: 9.33%
  NUCLEATED RED BLOOD CELLS: 0 /100WBC
  PLATELET COUNT: 1032 x10E3/uL
  ALANINE AMINOTRANSFERASE: 72.83 u/L
  ALBUMIN: 4 G/DL
  ALKALINE PHOSPHATASE: 322.83 u/L
  ASPARTATE AMINOTRANSFERASE: 102.67 u/L
  BLOOD UREA NITROGEN: 12 mg/dL
  CARBON DIOXIDE: 34.33 mmol/L
  CHLORIDE: 97.67 MEQ/L
  CHOLESTEROL: 82.5 mg/dL
  CREATINE PHOSPHOKINASE: 410.33 u/L
  CREATININE: 0.18 mg/dL
  GLUCOSE: 164.5 mg/dL
  LACTATE DEHYDROGENASE: 119.5 u/L
  LIPASE: 11.83 u/L
  PHOSPHORUS: 9.52 mg/dL
  POTASSIUM: 5.56 MEQ/L
  SODIUM: 142.48 MEQ/L
  TOTAL BILIRUBIN: 0.18 mg/dL
  TOTAL PROTEIN: 5.77 G/DL
  URIC ACID: 0.48 mg/dL
[2]
  ABSOLUTE BASOPHIL: 0 CELLS/uL
  ABSOLUTE EOSINOPHIL: 0 CELLS/uL
  ABSOLUTE LYMPHOCYTE: 9065 CELLS/uL
  ABSOLUTE MONOCYTE: 341.33 CELLS/uL
  ABSOLUTE SEGMENTED NEUTROPHIL: 527 CELLS/uL
  BASOPHIL: 0%
  EOSINOPHIL: 0%
  ERYTHROCYTE COUNT: 5.25 x10E6/uL
  HEMATOCRIT: 34.08%
  HEMOGLOBIN: 13.5 G/DL
  LEUKOCYTE COUNT: 9.93 x10E3/uL
  LYMPHOCYTE: 91.17%
  MEAN CORPUSCULAR HEMOGLOBIN: 25.7 pg
  MEAN CORPUSCULAR HEMOGLOBIN CONCENTRATION: 39.62 G/DL
  MEAN CORPUSCULAR VOLUME: 64.93 fL
  MONOCYTE: 3.33%
  NEUTROPHIL: 5.5%
  NUCLEATED RED BLOOD CELLS: 0 /100WBC
  PLATELET COUNT: 1077.5 x10E3/uL
  ALANINE AMINOTRANSFERASE: 57.83 u/L
  ALBUMIN: 4.07 G/DL
  ALKALINE PHOSPHATASE: 319.17 u/L
  ASPARTATE AMINOTRANSFERASE: 83.33 u/L
  BLOOD UREA NITROGEN: 13.67 mg/dL
  CARBON DIOXIDE: 30.83 mmol/L
  CHLORIDE: 98.33 MEQ/L
  CHOLESTEROL: 64.83 mg/dL
  CREATINE PHOSPHOKINASE: 263.67 u/L
  CREATININE: 0.2 mg/dL
  GLUCOSE: 182.83 mg/dL
  LACTATE DEHYDROGENASE: 124 u/L
  LIPASE: 10.5 u/L
  PHOSPHORUS: 10 mg/dL
  POTASSIUM: 5.78 MEQ/L
  SODIUM: 142.48 MEQ/L
  TOTAL BILIRUBIN: 0.2 mg/dL
  TOTAL PROTEIN: 6 G/DL
  URIC ACID: 0.7 mg/dL
[3]
  ABSOLUTE BASOPHIL: 0 CELLS/uL
  ABSOLUTE EOSINOPHIL: 83.33 CELLS/uL
  ABSOLUTE LYMPHOCYTE: 10800 CELLS/uL
  ABSOLUTE MONOCYTE: 251.33 CELLS/uL
  ABSOLUTE SEGMENTED NEUTROPHIL: 1265.33 CELLS/uL
  BASOPHIL: 0%
  EOSINOPHIL: 0.67%
  ERYTHROCYTE COUNT: 5.15 x10E6/uL
  HEMATOCRIT: 32.47%
  HEMOGLOBIN: 12.83 G/DL
  LEUKOCYTE COUNT: 12.4 x10E3/uL
  LYMPHOCYTE: 86.67%
  MEAN CORPUSCULAR HEMOGLOBIN: 24.97 pg
  MEAN CORPUSCULAR HEMOGLOBIN CONCENTRATION: 39.5 G/DL
  MEAN CORPUSCULAR VOLUME: 63.07 fL
  MONOCYTE: 2.33%
  NEUTROPHIL: 10.33%
  NUCLEATED RED BLOOD CELLS: 0 /100WBC
  PLATELET COUNT: 980 x10E3/uL
  ALANINE AMINOTRANSFERASE: 64 u/L
  ALBUMIN: 3.83 G/DL
  ALKALINE PHOSPHATASE: 379.67 u/L
  ASPARTATE AMINOTRANSFERASE: 79.67 u/L
  BLOOD UREA NITROGEN: 12.33 mg/dL
  CARBON DIOXIDE: 26 mmol/L
  CHLORIDE: 101 MEQ/L
  CHOLESTEROL: 69.33 mg/dL
  CREATINE PHOSPHOKINASE: 212.67 u/L
  CREATININE: 0.29 mg/dL
  GLUCOSE: 163 mg/dL
  LACTATE DEHYDROGENASE: 145.67 u/L
  LIPASE: 16 u/L
  PHOSPHORUS: 10.33 mg/dL
  POTASSIUM: 5.62 MEQ/L
  SODIUM: 142.37 MEQ/L
  TOTAL BILIRUBIN: 0.2 mg/dL
  TOTAL PROTEIN: 5.4 G/DL
  URIC ACID: 0.83 mg/dL
[4]
  ABSOLUTE BASOPHIL: 0 CELLS/uL
  ABSOLUTE EOSINOPHIL: 0 CELLS/uL
  ABSOLUTE LYMPHOCYTE: 9456 CELLS/uL
  ABSOLUTE MONOCYTE: 276.33 CELLS/uL
  ABSOLUTE SEGMENTED NEUTROPHIL: 701 CELLS/uL
  BASOPHIL: 0%
  EOSINOPHIL: 0%
  ERYTHROCYTE COUNT: 5.11 x10E6/uL
  HEMATOCRIT: 34.43%
  HEMOGLOBIN: 13.2 G/DL
  LEUKOCYTE COUNT: 10.43 x10E3/uL
  LYMPHOCYTE: 90.67%
  MEAN CORPUSCULAR HEMOGLOBIN: 25.9 pg
  MEAN CORPUSCULAR HEMOGLOBIN CONCENTRATION: 38.37 G/DL
  MEAN CORPUSCULAR VOLUME: 67.47 fL
  MONOCYTE: 2.67%
  NEUTROPHIL: 6.67%
  NUCLEATED RED BLOOD CELLS: 0 /100WBC
  PLATELET COUNT: 1124 x10E3/uL
  ALANINE AMINOTRANSFERASE: 58.33 u/L
  ALBUMIN: 4.1 G/DL
  ALKALINE PHOSPHATASE: 361 u/L
  ASPARTATE AMINOTRANSFERASE: 79.67 u/L
  BLOOD UREA NITROGEN: 10.67 mg/dL
  CARBON DIOXIDE: 30.67 mmol/L
  CHLORIDE: 95 MEQ/L
  CHOLESTEROL: 65.67 mg/dL
  CREATININE: 0.16 mg/dL
  GLUCOSE: 174.33 mg/dL
  LACTATE DEHYDROGENASE: 154.67 u/L
  LIPASE: 9.67 u/L
  PHOSPHORUS: 10.87 mg/dL
  POTASSIUM: 5.33 MEQ/L
  SODIUM: 137.97 MEQ/L
  TOTAL BILIRUBIN: 0.17 mg/dL
  TOTAL PROTEIN: 5.97 G/DL
  URIC ACID: 0.7 mg/dL
